The source of these data is the supplement of paper PMC10307832.

Common to all, as to assay: relative viability (nuclei count vs DMSO), 5 days (fraction); higher = more cells survive
Compound in experiment [1]: N[C@@H]1CCCN(c2c(/C=C3\SC(=O)NC3=O)cccc2-c2ccccc2)C1 [AZD1208] + Nc1nc2[nH]cc(CCc3ccc(C(=O)N[C@@H](CCC(=O)O)C(=O)O)cc3)c2c(=O)[nH]1 [Pemetrexed] (partner 0.2 µM)
The gist of the method:
(§1)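 Dosing by pin tool came one day after lung cancer cell lines were seeded in 1536-well plates, using either one drug or a fixed anchor-drug dose plus five library-drug doses (not always all listed) in √10 steps. After 5 days, nuclei were counted on 4× images. Relative viability is treated-well nuclei count divided by vehicle-well nuclei count, and values are medians of duplicate plates.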

Compound in experiment [2]: N[C@@H]1CCCN(c2c(/C=C3\SC(=O)NC3=O)cccc2-c2ccccc2)C1 [AZD1208] + CS(=O)(=O)N1CCN(Cc2cc3nc(-c4cccc5[nH]ncc45)nc(N4CCOCC4)c3s2)CC1 [Pictilisib] (partner 1 µM)
The gist of the method: as §1

Compound in experiment [3]: CN1CCN(CC1)C2=CC(=C(C=C2)NC3=NC(=C(S3)C(=O)C4=C(C=CC=C4Cl)Cl)N)OC [XMD14-99] + CC(=O)c1c(C)c2cnc(Nc3ccc(N4CCNCC4)cn3)nc2n(C2CCCC2)c1=O [Palbociclib] (partner 0.5 µM)
The gist of the method: as §1

Compound in experiment [4]: CN1CCN(CC1)C2=CC(=C(C=C2)NC3=NC(=C(S3)C(=O)C4=C(C=CC=C4Cl)Cl)N)OC [XMD14-99] + Cc1nc(NC(=O)N2CCC[C@H]2C(N)=O)sc1-c1ccnc(C(C)(C)C(F)(F)F)c1 [Alpelisib] (partner 2 µM)
The gist of the method: as §1

Turning to NCI-H2170, the relative viability in experiment [1] (first compound 0.08 µM) is 0.244; in experiment [1] (first compound 0.253 µM), 0.289; in experiment [1] (first compound 0.8 µM), 0.688; in experiment [1] (first compound 2.53 µM), 0.275; in experiment [1] (first compound 8 µM) it was 0.268; in experiment [2] (first compound 0.08 µM), 0.319. In addition, the relative viability in experiment [2] (first compound 0.253 µM) was determined as 0.263; in experiment [2] (first compound 0.8 µM) it was 0.254; in experiment [2] (first compound 2.53 µM) it was 0.213; in experiment [2] (first compound 8 µM), 0.224; in experiment [3] (first compound 0.08 µM), 0.426; in experiment [3] (first compound 0.8 µM), 0.4. The relative viability in experiment [3] (first compound 2.53 µM) was 0.425; in experiment [3] (first compound 8 µM), 0.395; in experiment [4] (first compound 0.08 µM), 0.771; in experiment [4] (first compound 0.8 µM), 0.762; in experiment [4] (first compound 2.53 µM), 0.854; in experiment [4] (first compound 8 µM) it was 0.734.
Consider NCI-H1395, for which the relative viability was found to be 0.937 in experiment [1] (first compound 0.08 µM); 0.859 in experiment [1] (first compound 0.253 µM); 0.699 in experiment [1] (first compound 0.8 µM); 0.787 in experiment [1] (first compound 2.53 µM); 0.673 in experiment [1] (first compound 8 µM); 0.694 in experiment [2] (first compound 0.08 µM). For the same cell line, the relative viability in experiment [2] (first compound 0.253 µM) stood at 0.618; in experiment [2] (first compound 0.8 µM), 0.553; in experiment [2] (first compound 2.53 µM), 0.554; in experiment [2] (first compound 8 µM), 0.644; in experiment [3] (first compound 0.08 µM), 0.58; in experiment [3] (first compound 0.8 µM), 0.678. The relative viability in experiment [3] (first compound 2.53 µM) amounted to 0.688; in experiment [3] (first compound 8 µM), 0.602; in experiment [4] (first compound 0.08 µM) it was 1.07; in experiment [4] (first compound 0.8 µM), 1.17; in experiment [4] (first compound 2.53 µM), 1.05; in experiment [4] (first compound 8 µM), 0.883.
Take NCI-H358: the relative viability in experiment [1] (first compound 0.08 µM) came out at 0.153; in experiment [1] (first compound 0.253 µM), 0.181; in experiment [1] (first compound 0.8 µM), 0.167; in experiment [1] (first compound 2.53 µM), 0.173; in experiment [1] (first compound 8 µM) it was 0.145; in experiment [2] (first compound 0.08 µM) it was 0.35. Further, the relative viability in experiment [2] (first compound 0.253 µM) came to 0.284; in experiment [2] (first compound 0.8 µM), 0.333; in experiment [2] (first compound 2.53 µM) it was 0.299; in experiment [2] (first compound 8 µM), 0.283; in experiment [3] (first compound 0.08 µM) it was 0.0998; in experiment [3] (first compound 0.8 µM), 0.147. The relative viability in experiment [3] (first compound 2.53 µM) stood at 0.132; in experiment [3] (first compound 8 µM), 0.124; in experiment [4] (first compound 0.08 µM), 0.751; in experiment [4] (first compound 0.8 µM), 0.841; in experiment [4] (first compound 2.53 µM), 0.715; in experiment [4] (first compound 8 µM), 0.304.
As for PC-14, the relative viability amounted to 0.125 in experiment [1] (first compound 0.08 µM); 0.132 in experiment [1] (first compound 0.253 µM); 0.14 in experiment [1] (first compound 0.8 µM); 0.153 in experiment [1] (first compound 2.53 µM); 0.165 in experiment [1] (first compound 8 µM); 0.617 in experiment [2] (first compound 0.08 µM). Moreover, the relative viability in experiment [2] (first compound 0.253 µM) was 0.743; in experiment [2] (first compound 0.8 µM), 0.436; in experiment [2] (first compound 2.53 µM) it was 0.584; in experiment [2] (first compound 8 µM) it was 0.482; in experiment [3] (first compound 0.08 µM), 0.567; in experiment [3] (first compound 0.8 µM), 0.527. Further, the relative viability in experiment [3] (first compound 2.53 µM) amounted to 0.5; in experiment [3] (first compound 8 µM), 0.24; in experiment [4] (first compound 0.08 µM), 0.813; in experiment [4] (first compound 0.8 µM) it was 0.921; in experiment [4] (first compound 2.53 µM), 0.901; in experiment [4] (first compound 8 µM), 0.73.
As for CAL-12T, the relative viability in experiment [1] (first compound 0.08 µM) was found to be 1.21; in experiment [1] (first compound 0.253 µM), 1.22; in experiment [1] (first compound 0.8 µM) it was 1.18; in experiment [1] (first compound 2.53 µM) it was 1.23; in experiment [1] (first compound 8 µM) it was 1.14; in experiment [2] (first compound 0.08 µM), 0.507. The relative viability in experiment [2] (first compound 0.253 µM) is 0.523; in experiment [2] (first compound 0.8 µM), 0.389; in experiment [2] (first compound 2.53 µM) it was 0.355; in experiment [2] (first compound 8 µM) it was 0.511; in experiment [3] (first compound 0.08 µM), 0.532; in experiment [3] (first compound 0.8 µM), 0.43. The relative viability in experiment [3] (first compound 2.53 µM) was found to be 0.485; in experiment [3] (first compound 8 µM) it was 0.413; in experiment [4] (first compound 0.08 µM), 1.49; in experiment [4] (first compound 0.8 µM) it was 1.13; in experiment [4] (first compound 2.53 µM), 1.15; in experiment [4] (first compound 8 µM) it was 1.03.
